Among the test systems are MOLT-4; SNB-19; KM12; HOP-62; NCI-H522; HCC 2998; EKVX; ACHN; NCI-H460; M14; OVCAR-4; PC-3; HT-29; MDA-N; HL-60; UO-31; SK-MEL-5; MCF7; MDA-MB-435; A549.
Common to all, as to test: NCI tumour cell line growth inhibition, 48 h

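A five-concentration, 48-hour dose response in 96-well plates underlies each endpoint, interpolated linearly between surrounding concentrations. Here, GI50 denotes the concentration required for 50% inhibition of growth.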 The source made the active and inactive calls. Cut-off read from the data, not from the text of the source: active = GI50 up to about 1.1 µM and inactive = higher.

As to `CC(C)OC(=O)c1ccc(NCc2cc(O)ccc2O)cc1`, the GI50 with MOLT-4 is 1.39 µM (inactive); with SNB-19, 3.3 µM (inactive); in the test with KM12 it was 3.38 µM (inactive); with HOP-62 it was 4.98 µM (inactive); in the test on NCI-H522, 0.21 µM (active); in the test with HCC 2998, 11.1 µM (inactive). In addition, the GI50 was 3.82 µM (inactive) in the test on EKVX; 3.6 µM (inactive) with ACHN; 11.1 µM (inactive) in the test with NCI-H460; 6.84 µM (inactive) in the test on M14; 5.05 µM (inactive) in the test on OVCAR-4; 1.8 µM (inactive) in the test on PC-3. For the same molecule, the GI50 is 13.7 µM (inactive) in the test with HT-29; 2.52 µM (inactive) in the test on MDA-N; 0.462 µM (active) in the test on HL-60; 1.51 µM (inactive) in the test on UO-31; 3.29 µM (inactive) in the test on SK-MEL-5; 1.66 µM (inactive) with MCF7. The GI50 is 2.06 µM (inactive) with MDA-MB-435 and 7.48 µM (inactive) in the test on A549.

For the molecule `CCOC(=O)c1ccc(/N=C/C=C(\Nc2ccc(C(=O)OCC)cc2)C23CC4CC(CC(C4)C2)C3)cc1`, the GI50 is < 0.01 µM (active) in the test on MOLT-4; > 100 µM (inactive) in the test with SNB-19; 43.5 µM (inactive) with KM12; > 100 µM (inactive) in the test on HOP-62; > 100 µM (inactive) in the test with NCI-H522; 91.2 µM (inactive) in the test on HCC 2998. The GI50 in the test on EKVX is 48.4 µM (inactive); in the test on ACHN, 93.1 µM (inactive); in the test on NCI-H460, 42.2 µM (inactive); in the test with M14, 35.8 µM (inactive); in the test with OVCAR-4, 70 µM (inactive); in the test on PC-3, 51.1 µM (inactive). The GI50 is 26.5 µM (inactive) with HT-29; 61.1 µM (inactive) in the test on MDA-N; 3.27 µM (inactive) in the test with HL-60; 3.43 µM (inactive) in the test on UO-31; 30.6 µM (inactive) in the test on SK-MEL-5; 43.9 µM (inactive) in the test with MCF7. Moreover, the GI50 was 89.7 µM (inactive) in the test with MDA-MB-435 and 50.6 µM (inactive) with A549.

As to `COc1ccc(C2OC(c3ccncc3)=NN2C)cc1OC` (stereo not given), the GI50 was 75.7 µM (inactive) in the test with MOLT-4; > 100 µM (inactive) in the test with SNB-19; > 100 µM (inactive) in the test on KM12; 94.6 µM (inactive) with HOP-62; > 100 µM (inactive) in the test with NCI-H522; > 100 µM (inactive) in the test on HCC 2998. Further, the GI50 in the test on EKVX is > 100 µM (inactive); in the test with ACHN, > 100 µM (inactive); in the test on NCI-H460 it was > 100 µM (inactive); with M14, > 100 µM (inactive); in the test with OVCAR-4, > 100 µM (inactive); in the test on PC-3, 53.2 µM (inactive). For the same molecule, the GI50 in the test with HT-29 is > 100 µM (inactive); with MDA-N, > 100 µM (inactive); in the test with HL-60, 96.8 µM (inactive); in the test on UO-31 it was 60.1 µM (inactive); with SK-MEL-5, 92.5 µM (inactive); in the test on MCF7 it was 71.3 µM (inactive). Moreover, the GI50 in the test on MDA-MB-435 and with A549 was > 100 µM (inactive) throughout.

Regarding `CSc1ccc(/C=C2\N=C(c3ccccc3)N(c3nc4ccc(Sc5ccccc5)cc4[nH]3)C2=O)cc1`, the GI50 with MOLT-4 was 22.3 µM (inactive); with SNB-19, 24.9 µM (inactive); in the test with KM12, 15.3 µM (inactive); with HOP-62, 17.2 µM (inactive); in the test on NCI-H522, 15.9 µM (inactive); with HCC 2998, 16.7 µM (inactive). For the same molecule, the GI50 with EKVX is 31 µM (inactive); in the test with ACHN, 30.8 µM (inactive); in the test on NCI-H460 it was 19.1 µM (inactive); in the test with M14, 15.3 µM (inactive); with OVCAR-4, 30.9 µM (inactive); in the test with PC-3 it was 21.8 µM (inactive). Moreover, the GI50 was 17.5 µM (inactive) with HT-29; 3.37 µM (inactive) with MDA-N; 14.2 µM (inactive) with HL-60; 18.3 µM (inactive) in the test on UO-31; 13.3 µM (inactive) with SK-MEL-5; 15.1 µM (inactive) in the test with MCF7. In addition, the GI50 with MDA-MB-435 is 5.28 µM (inactive); with A549, 35.5 µM (inactive).

On to `COc1ccc(C)cc1Nc1nnc(-c2ccccc2N)s1`, for which the GI50 in the test with MOLT-4 is 2.41 µM (inactive); in the test with SNB-19 it was > 100 µM (inactive); with KM12, 28.4 µM (inactive); in the test with HOP-62, 44.7 µM (inactive); in the test with NCI-H522, 20.2 µM (inactive); with HCC 2998 it was 30 µM (inactive). The GI50 was 24.7 µM (inactive) with EKVX; 51.8 µM (inactive) with ACHN; 31 µM (inactive) with NCI-H460; 40.2 µM (inactive) with M14; 26.1 µM (inactive) in the test with OVCAR-4; 35 µM (inactive) in the test on PC-3. Also, the GI50 was 41.5 µM (inactive) in the test on HT-29; 28.9 µM (inactive) in the test on MDA-N; 19.5 µM (inactive) in the test with HL-60; 36.8 µM (inactive) in the test with UO-31; 13.7 µM (inactive) in the test with SK-MEL-5; 37.8 µM (inactive) in the test with MCF7. The GI50 was 28.6 µM (inactive) in the test on MDA-MB-435 and 47.4 µM (inactive) in the test on A549.

Regarding `COC(=O)C1=C(OC)[C@H]2C#C/C=C\C#C[C@@H]3Nc4c(cc(O)c5c4C(=O)c4ccccc4C5=O)[C@]24O[C@@]34[C@H]1C`, the GI50 in the test with MOLT-4, with SNB-19, with KM12, with HOP-62, with NCI-H522 and in the test on HCC 2998 was < 0.01 µM (active) throughout. The GI50 with EKVX is < 0.012 µM (active); in the test with ACHN it was < 0.01 µM (active); in the test with NCI-H460 it was < 0.01 µM (active); in the test on M14, < 0.01 µM (active); in the test with OVCAR-4, 0.0519 µM (active); with PC-3 it was < 0.01 µM (active). In addition, the GI50 in the test on HT-29, in the test with MDA-N, in the test with HL-60, in the test on UO-31, in the test with SK-MEL-5 and with MCF7 was < 0.01 µM (active) in each case. Further, the GI50 with MDA-MB-435 and with A549 was < 0.01 µM (active) throughout.

For the molecule `C#CC1(O)CCC2[C@@H]3CCc4cc(Oc5nc(F)nc(-c6c(C)c(C(=O)OCC)n7ccccc67)n5)ccc4C3CC[C@@]21C` (stereo not given in full), the GI50 in the test with MOLT-4, in the test with SNB-19, in the test on KM12, in the test on HOP-62, in the test with NCI-H522 and in the test with HCC 2998 was > 100 µM (inactive) each time. The GI50 in the test on EKVX, in the test on ACHN, with NCI-H460, with M14, with OVCAR-4 and in the test with PC-3 was > 100 µM (inactive) each time. Also, the GI50 in the test on HT-29, in the test on MDA-N, in the test with HL-60, in the test on UO-31, with SK-MEL-5 and with MCF7 was > 100 µM (inactive) throughout. Also, the GI50 in the test on MDA-MB-435 and with A549 was > 100 µM (inactive) each time.

The values are drawn from ChEMBL document CHEMBL1201862, “PubChem BioAssay data set” (2004).
